Reference: patent publication US11505573B2, “Peptide macrocycles against Acinetobacter baumannii” (Hoffmann-La Roche Inc., priority 2018, dated 2022)

Test system: A. baumannii ATCC 17978
Assay: Antimicrobial susceptibility testing: 50% growth inhibitory concentration (IC50) determination in Iso-Sensitest broth
Assay type: cell-based
Details: Acinetobacter baumannii; A. baumannii strain ATCC17978; Iso-Sensitest medium; OD 600 nm over 16 h; 35±2° C.; read-out: IC50 ATCC17978 (50% growth inhibition concentration)
Method: Antimicrobial Susceptibility Testing: 50% Growth Inhibitory Concentration (IC50) Determination The in vitro antimicrobial activity of the compounds was alternatively determined according to the following procedure: The assay used a 10-points Iso-Sensitest broth medium to measure quantitatively the in vitro activity of the compounds against A. baumannii ATCC 17978. Stock compounds in DMSO were serially twofold diluted (e.g. range from 10 to 0.02 μM final concentration) in 384 wells microtiter plates and inoculated with 49 μl the bacterial suspension in Iso-Sensitest medium to have a final cell concentration of ˜5×10^(5) CFU/ml in a final volume/well of […] Microtiter plates were incubated at 35±2° C. Bacterial cell growth was determined by the measurement of optical density at λ=600 nm each 20 minutes over a time course of 16 h. Growth inhibition was calculated during the logarithmic growth of the bacterial cells by determination of the concentration inhibiting 50% (IC50) and 90% (IC90) of the growth. Table 1 provides the 50% growth inhibitory concentrations (IC50) in micromoles per liter of the compounds of present invention obtained against the A. baumannnii strain ATCC17978.

| IC50 [nM] | SMILES |
| --- | --- |
| 20 | CN1C(=O)[C@H](CCCCN)NC(=O)[C@H](CCCN)NCc2cccnc2Sc2c(Cl)ccc(-c3ccc(S(=O)(=O)O)cc3)c2CNC(=O)[C@@H]1Cc1c[nH]c2ccccc12 [Example 1.00, 4-[(11S,14S,17S)-14-(4-Aminobutyl)-11-(3-aminopropyl)-25-chloro-17-(1H-indol-3-ylmethyl)-16-methyl-12,15,18-trioxo-2-thia-4,10,13,16,19-pentazatricyclo[19.4.0.03,8]pentacosa-1(25),3,5,7,21,23-hexaen-22-yl]benzenesulfonic acid] |
| 20 | CN1C(=O)[C@H](CCCCN)NC(=O)[C@H](CCCN)NCc2cccnc2Sc2c(Cl)ccc(-c3ccc4nn[nH]c4c3)c2CNC(=O)[C@@H]1Cc1c[nH]c2ccccc12 [Example 1.01, (11S,14S,17S)-14-(4-aminobutyl)-11-(3-aminopropyl)-22-(3H-benzotriazol-5-yl)-25-chloro-17-(1H-indol-3-ylmethyl)-16-methyl-2-thia-4,10,13,16,19-pentazatricyclo[19.4.0.03,8]pentacosa-1(25),3,5,7,21,23-hexaene-12,15,18-trione] |
| 100 | CN1C(=O)[C@H](CCCCN)NC(=O)[C@H](CCCN)NCc2cccnc2Sc2c(Cl)ccc(-c3ccc(-c4nnn[nH]4)cc3)c2CNC(=O)[C@@H]1Cc1c[nH]c2ccccc12 [Example 1.02, (11S,14S,17S)-14-(4-aminobutyl)-11-(3-aminopropyl)-25-chloro-17-(1H-indol-3-ylmethyl)-16-methyl-22-[4-(1H-tetrazol-5-yl)phenyl]-2-thia-4,10,13,16,19-pentazatricyclo[19.4.0.03,8]pentacosa-1(25),3,5,7,21,23-hexaene-12,15,18-trione] |
| 360 | CN1C(=O)[C@H](CCCCN)NC(=O)[C@H](CCCN)NCc2cccnc2Sc2c(Cl)ccc(-c3cccc(-c4nnn[nH]4)c3)c2CNC(=O)[C@@H]1Cc1c[nH]c2ccccc12 [Example 1.03, (11S,14S,17S)-14-(4-aminobutyl)-11-(3-aminopropyl)-25-chloro-17-(1H-indol-3-ylmethyl)-16-methyl-22-[3-(1H-tetrazol-5-yl)phenyl]-2-thia-4,10,13,16,19-pentazatricyclo[19.4.0.03,8]pentacosa-1(25),3,5,7,21,23-hexaene-12,15,18-trione] |
| 20 | CC(=O)NS(=O)(=O)c1ccc(-c2ccc(Cl)c3c2CNC(=O)[C@H](Cc2c[nH]c4ccccc24)N(C)C(=O)[C@H](CCCCN)NC(=O)[C@H](CCCN)NCc2cccnc2S3)cc1 [Example 1.04, N-[4-[(11S,14S,17S)-14-(4-aminobutyl)-11-(3-aminopropyl)-25-chloro-17-(1H-indol-3-ylmethyl)-16-methyl-12,15,18-trioxo-2-thia-4,10,13,16,19-pentazatricyclo[19.4.0.03,8]pentacosa-1(21),3,5,7,22,24-hexaen-22-yl]phenyl]sulfonylacetamide] |
| 20 | CN1C(=O)[C@H](CCCCN)NC(=O)[C@H](CCCN)NCc2cccnc2Sc2c(Cl)ccc(-c3cnc(=O)[nH]c3)c2CNC(=O)[C@@H]1Cc1c[nH]c2ccccc12 [Example 1.05, (11S,14S,17S)-14-(4-aminobutyl)-11-(3-aminopropyl)-25-chloro-17-(1H-indol-3-ylmethyl)-16-methyl-22-(2-oxo-1H-pyrimidin-5-yl)-2-thia-4,10,13,16,19-pentazatricyclo[19.4.0.03,8]pentacosa-1(25),3,5,7,21,23-hexaene-12,15,18-trione] |
| 80 | CN1C(=O)[C@H](CCCCN)NC(=O)[C@H](CCCN)NCc2cccnc2Sc2c(Cl)ccc(-c3ccn(Cc4nnn[nH]4)c(=O)c3)c2CNC(=O)[C@@H]1Cc1c[nH]c2ccccc12 [Example 2.00, (11S,14S,17S)-14-(4-Aminobutyl)-11-(3-aminopropyl)-25-chloro-17-(1H-indol-3-ylmethyl)-16-methyl-22-[2-oxo-1-(1H-tetrazol-5-ylmethyl)-4-pyridyl]-2-thia-4,10,13,16,19-pentazatricyclo[19.4.0.03,8]pentacosa-1(25), 3(8),4,6,21,23-hexaene-12,15,18-trione] |
| 80 | CN1C(=O)[C@H](CCCCN)NC(=O)[C@H](CCCN)NCc2cccnc2Sc2c(Cl)ccc(-c3ccc(-c4nsc(=O)[nH]4)cc3)c2CNC(=O)[C@@H]1Cc1c[nH]c2ccccc12 [Example 3.00, (11S,14S,17S)-14-(4-Aminobutyl)-11-(3-aminopropyl)-25-chloro-17-(1H-indol-3-ylmethyl)-16-methyl-22-[4-(5-oxo-4H-1,2,4-thiadiazol-3-yl)phenyl]-2-thia-4,10,13,16,19-pentazatricyclo[19.4.0.03,8]pentacosa-1(25), 3(8),4,6,21,23-hexaene-12,15,18-trione] |
| 20 | CN1C(=O)[C@H](CCCCN)NC(=O)[C@H](CCCN)NCc2cccnc2Sc2c(Cl)ccc(-c3ccc(-c4noc(=O)[nH]4)cc3)c2CNC(=O)[C@@H]1Cc1c[nH]c2ccccc12 [Example 4.00, (11S,14S,17S)-14-(4-Aminobutyl)-11-(3-aminopropyl)-25-chloro-17-(1H-indol-3-ylmethyl)-16-methyl-22-[4-(5-oxo-4H-1,2,4-oxadiazol-3-yl)phenyl]-2-thia-4,10,13,16,19-pentazatricyclo[19.4.0.03,8]pentacosa-1(25), 3(8),4,6,21,23-hexaene-12,15,18-trione] |
| 20 | CN1C(=O)[C@H](CCCCN)NC(=O)[C@H](CCCN)NCc2cccnc2Sc2cccc(-c3ccc(-c4nnn[nH]4)cc3)c2CNC(=O)[C@@H]1Cc1c[nH]c2ccccc12 [Example 5.00, (11S,14S,17S)-14-(4-Aminobutyl)-1-(3-aminopropyl)-17-(1H-indol-3-ylmethyl)-16-methyl-22-[4-(1H-tetrazol-5-yl)phenyl]-2-thia-4,10,13,16,19-pentazatricyclo[19.4.0.03,8]pentacosa-1(25), 3(8),4,6,21,23-hexaene-12,15,18-trione] |
| 20 | CN1C(=O)[C@H](CCCCN)NC(=O)[C@H](CCCN)NCc2nccnc2Sc2c(Cl)ccc(-c3ccc(S(=O)(=O)O)cc3)c2CNC(=O)[C@@H]1Cc1c[nH]c2ccccc12 [Example 6.00, 4-[(11S,14S,17S)-14-(4-Aminobutyl)-1-(3-aminopropyl)-25-chloro-17-(1H-indol-3-ylmethyl)-16-methyl-12,15,18-trioxo-2-thia-4,7,10,13,16,19-hexazatricyclo[19.4.0.03,8]pentacosa-1(25), 3(8),4,6,21,23-hexaen-22-yl]benzenesulfonic acid] |
| 20 | CN1C(=O)[C@H](CCCCN)NC(=O)[C@H](CCCN)NCc2cccnc2Sc2c(F)ccc(-c3ccc(S(=O)(=O)O)cc3)c2CNC(=O)[C@@H]1Cc1c[nH]c2ccccc12 [Example 7.00, 4-[(11S,14S,17S)-14-(4-Aminobutyl)-11-(3-aminopropyl)-25-fluoro-17-(1H-indol-3-ylmethyl)-16-methyl-12,15,18-trioxo-2-thia-4,10,13,16,19-pentazatricyclo[19.4.0.03,8]pentacosa-1(25), 3(8),4,6,21,23-hexaen-22-yl]benzenesulfonic acid] |
| 20 | CN1C(=O)[C@H](CCCCN)NC(=O)[C@H](CCCN)NCc2cccnc2Sc2c(F)ccc(-c3ccc(-c4nnn[nH]4)cc3)c2CNC(=O)[C@@H]1Cc1c[nH]c2ccccc12 [Example 7.01, (11S,14S,17S)-14-(4-aminobutyl)-11-(3-aminopropyl)-25-fluoro-17-(1H-indol-3-ylmethyl)-16-methyl-22-[4-(1H-tetrazol-5-yl)phenyl]-2-thia-4,10,13,16,19-pentazatricyclo[19.4.0.03,8]pentacosa-1(25),3(8),4,6,21,23-hexaene-12,15,18-trione] |
| 30 | CC(=O)NS(=O)(=O)c1ccc(-c2ccc(F)c3c2CNC(=O)[C@H](Cc2c[nH]c4ccccc24)N(C)C(=O)[C@H](CCCCN)NC(=O)[C@H](CCCN)NCc2cccnc2S3)cc1 [Example 7.02, N-[4-[(11S,14S,17S)-14-(4-aminobutyl)-11-(3-aminopropyl)-25-fluoro-17-(1H-indol-3-ylmethyl)-16-methyl-12,15,18-trioxo-2-thia-4,10,13,16,19-pentazatricyclo[19.4.0.03,8]pentacosa-1(25),3(8),4,6,21,23-hexaen-22-yl]phenyl]sulfonylacetamide] |
| 40 | CN1C(=O)[C@H](CCCCN)NC(=O)[C@H](CCCN)NCc2cccnc2Sc2c(F)ccc(-c3ccc(C(=O)NS(C)(=O)=O)cc3)c2CNC(=O)[C@@H]1Cc1c[nH]c2ccccc12 [Example 7.03, 4-[(11S,14S,17S)-14-(4-aminobutyl)-11-(3-aminopropyl)-25-fluoro-17-(1H-indol-3-ylmethyl)-16-methyl-12,15,18-trioxo-2-thia-4,10,13,16,19-pentazatricyclo[19.4.0.03,8]pentacosa-1(25),3(8),4,6,21,23-hexaen-22-yl]-N-methylsulfonyl-benzamide] |
| 20 | CN1C(=O)[C@H](CCCN)NC(=O)[C@H](CCCN)NCc2cccnc2Sc2c(Cl)ccc(-c3ccc(S(=O)(=O)O)cc3)c2CNC(=O)[C@@H]1Cc1c[nH]c2ccccc12 [Example 8.00, 4-[(11S,14S,17S)-11,14-Bis(3-aminopropyl)-25-chloro-17-(1H-indol-3-ylmethyl)-16-methyl-12,15,18-trioxo-2-thia-4,10,13,16,19-pentazatricyclo[19.4.0.03,8]pentacosa-1(21),3,5,7,22,24-hexaen-22-yl]benzenesulfonic acid] |
